# Measured values published in US9492542B2, “Pharmaceutical composition for the treatment of MCP-1 mediated inflammatory diseases” (priority 2009, dated 2016).
# Where two headings read alike, the source gives them in different places.
# Legend:
# [1] = system: MCP-1; test: Effect on LPS-induced MCP-1 plasma levels in mice (Example 1, ELISA); details: calculated versus vehicle group; same doses and schedule as E1
# Procedure: MCP-1 plasma levels were measured by commercially available ELISA kit. Drugs were intraperitoneally (ip) administered 30 minutes before LPS injection (50 μg/mouse, ip) to groups of eight mice. […] The percent reduction was calculated versus the vehicle group.
# [2] = Effect on proteinuria in human: Urinary Albumin Excretion (UAE) in Type 2 diabetes patients (Example 2); assay type: in vivo; details: 8 weeks, bindarit 600 mg twice a day, irbesartan 300 mg once a day
# Source text: Irbesartan is a well known angiotensin receptor blockers (ARB). The treatment lasted 8 weeks.
# [3] = system: MCP-1; details: calculated versus vehicle group; same doses and schedule as E6
# Procedure: MCP-1 plasma levels were measured by commercially available ELISA kit.
# Drugs were intraperitoneally (ip) administered 30 minutes before LPS injection (50 μg/mouse, ip) to groups of six mice. At 3 hours following
# LPS injection, mice were anesthetized and blood was withdrawn by intracardiac puncture in order to obtain plasma (heparinized samples) to be used to measure MCP-1 levels.
# The percent reduction was calculated versus the vehicle group.
SMILES,MCP-1 plasma level % reduction [1] [%],further results
"CCCCc1nc(Cl)c(CO)n1Cc1ccc(-c2ccccc2-c2nn[nH]n2)cc1 [Losartan, losartan]",13,
"CCCCC1=NC2(CCCC2)C(=O)N1Cc1ccc(-c2ccccc2-c2nnn[nH]2)cc1 [Placebo + Irbesartan, irbesartan]",,Patient percentage with a UAE reduction equal to or higher than 25% with respect to basal value [2]: 27.5%
"CCOC(=O)[C@H](CCc1ccccc1)N[C@@H](C)C(=O)N1[C@H](C(=O)O)C[C@@H]2CCC[C@@H]21 [Ramipril, ramipril]",30,
"CCC(C)(C)C(=O)O[C@H]1C[C@@H](C)C=C2C=C[C@H](C)[C@H](CC[C@@H]3C[C@@H](O)CC(=O)O3)[C@H]21 [Simvastatin, simvastatin]",7,
"COc1ccc(CCN(C)CCCC(C#N)(c2ccc(OC)c(OC)c2)C(C)C)cc1OC (centres unmarked) [Verapamil, verapamil]",,MCP-1 plasma level % reduction [3]: 26%
